Data reported in article PMC12534982 (Journal of Experimental & Clinical Cancer Research : CR, 2025).

Experiments:
Assay type in all cases: cell-based, human
colorectal cancer cells = test: DNA damage immunostaining (γ-H2AX, Rad51); conditions: 25 µM, 24 h
Experimental: To evaluate DNA damage, cancer cells (1 × 10^3) were cultured in 8-well collagen IV Ibidi chamber slides (#80,822; Ibidi) for 24 h, treated with DMSO or NK-A 17E-233I (25 µM) for an additional 24 h, and then fixed. For assessing the integrity of the cytoskeleton, neuronal cells (BFCNs) were cultured on coverslips for 14 days, while non-neuronal cells (cancer cells) were cultured on coverslips for 24 h. Both neuronal and non-neuronal cells were treated with DMSO or NK-A 17E-233I (1 µM) for 24 h, fixed, and permeabilized as described in [21]. Samples were then blocked (non-neuronal cells with 3% BSA in PBS-T and neuronal cells with 10% BSA in PBS-T) and incubated overnight at 4 °C with the appropriate primary antibodies. Following this, samples were washed with PBS-T and incubated for 1 h with Alexa-488 Phalloidin (#A12379; Invitrogen-ThermoFisher Scientific) to visualize F-actin, along with the corresponding secondary antibodies. The cells were mounted with Ibidi mounting medium containing 4',6-diamidino-2-phenylindole (DAPI, #50011; Ibidi) prior to imaging. […]
The density of γ-H2AX, Rad51, ΔΨm, and oxidative stress in cancer cells was measured as described in [32], utilizing custom macros available as open access at Zenodo (https://zenodo.org/records/8387899) to obtain raw intensities and individual cell area.

SW620 cells [1] = test: Intracellular nucleotides, orotate and DHO by HPLC–MS/MS; conditions: 25 µM, 24 h
Experimental: Cancer cells (2.2 × 10^6) were cultured in 100-mm Petri dishes and treated with DMSO or NK-A 17E-233I (25 µM) for 24 h. Nucleotides and related compounds were extracted from cell pellets by treatment with 0.5 M trichloroacetic acid (TCA) followed by neutralization and solvent evaporation as detailed in [30]. Dry extracts were stored at -70°C until further analysis. Protein pellets sedimented after TCA precipitation were re-dissolved in 1 mL of 100 mM NaOH, 5% SDS by incubation at 95 °C for 5 min, followed by complete re-dissolution through several syringe strokes with a 23G needle. The concentration of the re-dissolved protein was quantified using the Pierce™ BCA Protein Assay Kit (Thermo Fisher Scientific), with the amount of the metabolites referenced to protein content.
On the day of metabolite analysis, the dry extracts were re-dissolved in 150 µL of water. Nucleotides, DHO and orotate concentrations were determined using HPLC–MS/MS using Acquity UPLC-Xevo™ TQ Mass Spectrometer (Waters, MA, USA), following the methodology described in [30]. The m/z transitions for DHO and orotate were 156.87 > 113.09 and 154.90 > 111.00, respectively. The identification of all compounds was based on retention time and specific ion transitions. The calibration curves generated with aqueous standards were processed concurrently, and the concentrations were derived from peak area interpolation using TargetLynx software (Waters, MA, USA).

SW620 cells [2] = test: Mitochondrial respiration (OCR) in intact cells; conditions: 24 h
Experimental: Oxygen consumption rate (OCR) was measured using a high-resolution respirometer (Oxygraph-2k, Oroboros Instruments, Innsbruck, Austria). SW620 cells (2.2 × 10^6) were cultured in 100-mm Petri dishes and treated with DMSO or NK-A 17E-233I (25 µM) for 24 h. Cells were harvested at 80% confluency using 0.25% trypsin/EDTA and resuspended in complete DMEM at a concentration of 5 × 10^5 cells/mL. The cells were subsequently analyzed in two 2 mL Oxygraph chambers. Real-time measurements of OCR were conducted at 37 °C under basal conditions and following the sequential addition of inhibitors targeting various mitochondrial respiratory complexes: oligomycin (2.5 μM) to inhibit complex V (to assess ATP-linked respiration and leak rate), carbonyl cyanide-p-trifluoromethoxyphenylhydrazone (FCCP) with stepwise titration in 0.5 μM increments (to evaluate maximal electron transport system respiratory capacity and reserve capacity), and rotenone (0.5 μM) and antimycin A (2.5 μM) to inhibit complex I and complex III, respectively (to measure non-mitochondrial oxygen consumption). The values of OCR were normalized to mitochondrial DNA copy number, which was quantified by qPCR using the primers referenced above. Data analysis was performed using DatLab7 (Oroboros, Austria) software.

SW620 cells [3] = test: Glutathione assay (GSH/GSSG); conditions: 25 µM, 24 h
Experimental: Optical density measurements were recorded at 450 nm using a Victor Multilabel Plate Reader.

SW620 cells [4] = test: DHODH-dependent respiration (permeabilized cells); conditions: 24 h; NK-A 17E-233I 25 µM, Brequinar 100 µM; excess exogenous DHO
Experimental: Cells were resuspended in MiR05 medium and transferred into the chambers of the Oxygraph-2k instruments. The OCR in digitonin-permeabilized cells was monitored in the presence of the complex I inhibitor (0.5 μM rotenone), 1 mM DHO, 3 mM ADP, 10 μM cytochrome c, and 30 μM Leflunomide. DHODH-mediated respiration was calculated by subtracting the residual respiration rate after the addition of 30 μM Leflunomide from the respiration rate measured in the presence of 0.5 μM rotenone, 1 mM DHO, 3 mM ADP, and 10 μM cytochrome c.

SW620 cells [5] = test: Lactate assay; conditions: 25 µM, 24 h; in comparison to Brequinar (100 µM)
Experimental: This assessment was conducted utilizing a Lactate Assay Kit-WST (#L256-20; Dojindo Laboratories), in accordance with the manufacturer's protocol. Optical density measurements were recorded at 450 nm using a Victor Multilabel Plate Reader.

[6] = median [Minimum – Maximum], five experiments
[7] = median [Minimum – Maximum], four experiments

For COc1cc(C)c(Oc2cc(C)cc(O)c2O)c(O)c1 [NK-A 17E-233I], which “intensity of γ-H2AX and Rad51” value (colorectal cancer cells) is on record?
Its value is “significant increase”.

And the “levels of purine nucleotides” value (SW620 cells [1])?
The value was “remained unchanged”.

And the ADP amount (SW620 cells [1]; [6])?
The ADP amount was 7,917 [5,048–9,389] pmoles/mg protein.

And the “AMP + ADP + ATP amount” value (SW620 cells [1]; [6])?
The value was 26,257 [24,352 – 27,848] pmoles/mg protein.

What about the AMP amount (SW620 cells [1]; [6]) of the same compound?
The AMP amount was 961 [405–2,739] pmoles/mg protein.

What about the ATP amount (SW620 cells [1]; [6]) of the same compound?
Its ATP amount is 15,907 [14,173–21,694] pmoles/mg protein.

And the CDP amount (SW620 cells [1]; [6])?
Its CDP amount is 351 [143–504] pmoles/mg protein.

And the “CMP + CDP + CTP amount” value (SW620 cells [1]; [6])?
Its value is 6,327 [6,028 – 10,285] pmoles/mg protein.

What about the CMP amount (SW620 cells [1]; [6]) of the same compound?
The CMP amount was 263 [220–707] pmoles/mg protein.

What about the CTP amount (SW620 cells [1]; [6]) of the same compound?
The CTP amount was 5,801 [5,142–9,519] pmoles/mg protein.

And the GDP amount (SW620 cells [1]; [6])?
The GDP amount was 1,339 [1,008–1,566] pmoles/mg protein.

What about the “GMP + GDP + GTP amount” value (SW620 cells [1]; [6]) of the same compound?
Its value is 5,228 [4,902 – 7,797] pmoles/mg protein.

What about the GTP amount (SW620 cells [1]; [6]) of the same compound?
Its GTP amount is 3,565 [3,407–6,418] pmoles/mg protein.

And the UDP amount (SW620 cells [1]; [6])?
Its UDP amount is 927 [867–1,161] pmoles/mg protein.

And the UMP amount (SW620 cells [1]; [6])?
Its UMP amount is 335 [81–424] pmoles/mg protein.

What about the UTP amount (SW620 cells [1]; [6]) of the same compound?
Its UTP amount is 4,013 [3,397–6,651] pmoles/mg protein.

And the GMP amount (SW620 cells [1]; median [Minimum – Maximum], five experiments, undetectable treated as zero)?
The GMP amount was 156 [0–268] pmoles/mg protein.

What about the DHO amount (SW620 cells [1]; [7]) of the same compound?
The DHO amount was 26.5 [18.3–228.5] pmoles/mg protein.

What about the Orotate amount (SW620 cells [1]; [7]) of the same compound?
Its Orotate amount is 70.5 [61.7–137.1] pmoles/mg protein.

What about the maximal respiration (SW620 cells [2]; 25 µM) of the same compound?
Its maximal respiration is “significantly decreased”.

And the “basal and ATP-linked respiration in intact cells” value (SW620 cells [2]; NK-A 17E-233I 25 µM, Brequinar 100 µM)?
The value was “retained basal respiration”.

What about the GSH/GSSG ratio (SW620 cells [3]) of the same compound?
The GSH/GSSG ratio was “significantly decreased”.

What about the “oxidized glutathione (GSSG) levels” value (SW620 cells [3]) of the same compound?
Its value is “increasing”.

What about the “reduced glutathione (GSH) levels” value (SW620 cells [3]) of the same compound?
Its value is “significantly decreased”.

What about the “DHODH-mediated oxygen consumption rate” value (SW620 cells [4]) of the same compound?
The value was “reduced”.

What about the concentration of lactate (SW620 cells [5]) of the same compound?
The concentration of lactate was “significantly reduced”.
